The supplement of paper PMC4862054

Test system: MDA-MB-436
Test: normalised response (% of control), CellTiter-Glo; higher = more viable cells (100 = DMSO, 0 = benzethonium chloride kill control)
Conditions: incubation time: 72 h
Protocol: (§1)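 DSRT, 72 h incubation, CellTox Green / CellTiter-Glo readout. Signal is normalised to DMSO and benzethonium chloride controls. Value is the normalised response at dose 3.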

| Compound | normalised response [%] |
| --- | --- |
| O=C(O)CCCCC(CCSCc1ccccc1)SCc1ccccc1 (stereo unspecified) [CPI-613] (100 nM) | 101 |
| Nc1nc2[nH]cc(CCc3ccc(C(=O)N[C@@H](CCC(=O)O)C(=O)O)cc3)c2c(=O)[nH]1 [Pemetrexed] (100 nM) | 80.9 |
| Cc1cnc(NC(=O)Nc2cc(Br)c(C)cc2OC[C@@H]2CNCCO2)cn1 [Rabusertib] (10 nM) | 115 |
| CCCCC(=O)OCC(=O)[C@]1(O)Cc2c(O)c3c(c(O)c2[C@@H](O[C@H]2C[C@H](NC(=O)C(F)(F)F)[C@H](O)[C@H](C)O2)C1)C(=O)c1c(OC)cccc1C3=O [Valrubicin] (50 nM) | 92.2 |
| N#Cc1ccc(C(c2ccc(C#N)cc2)n2cncn2)cc1 [Letrozole] (100 nM) | 105 |
| CCCS(=O)(=O)Nc1ccc(F)c(C(=O)c2c[nH]c3ncc(-c4ccc(Cl)cc4)cc23)c1F [Vemurafenib] (100 nM) | 95.9 |
| CC[C@H](Nc1ncnc2[nH]cnc12)c1nc2cccc(F)c2c(=O)n1-c1ccccc1 [GS-1101] (100 nM) | 90 |
| CC(=O)Nc1cccc(-n2c(=O)n(C3CC3)c(=O)c3c(Nc4ccc(I)cc4F)n(C)c(=O)c(C)c32)c1 [Trametinib] (2.5 nM) | 96.1 |
| Nc1ccccc1NC(=O)c1ccc(CNC(=O)OCc2cccnc2)cc1 [Entinostat] (100 nM) | 102 |

Test system: HCC1143
Test: as above
Conditions: incubation time: 72 h
Protocol: as §1

| Compound | normalised response [%] |
| --- | --- |
| O=C(O)CCCCC(CCSCc1ccccc1)SCc1ccccc1 (stereo unspecified) [CPI-613] (100 nM) | 106 |
| Nc1nc2[nH]cc(CCc3ccc(C(=O)N[C@@H](CCC(=O)O)C(=O)O)cc3)c2c(=O)[nH]1 [Pemetrexed] (100 nM) | 103 |
| Cc1cnc(NC(=O)Nc2cc(Br)c(C)cc2OC[C@@H]2CNCCO2)cn1 [Rabusertib] (10 nM) | 104 |
| CCCCC(=O)OCC(=O)[C@]1(O)Cc2c(O)c3c(c(O)c2[C@@H](O[C@H]2C[C@H](NC(=O)C(F)(F)F)[C@H](O)[C@H](C)O2)C1)C(=O)c1c(OC)cccc1C3=O [Valrubicin] (50 nM) | 104 |
| N#Cc1ccc(C(c2ccc(C#N)cc2)n2cncn2)cc1 [Letrozole] (100 nM) | 104 |
| CCCS(=O)(=O)Nc1ccc(F)c(C(=O)c2c[nH]c3ncc(-c4ccc(Cl)cc4)cc23)c1F [Vemurafenib] (100 nM) | 94.7 |
| CC[C@H](Nc1ncnc2[nH]cnc12)c1nc2cccc(F)c2c(=O)n1-c1ccccc1 [GS-1101] (100 nM) | 98.5 |
| CC(=O)Nc1cccc(-n2c(=O)n(C3CC3)c(=O)c3c(Nc4ccc(I)cc4F)n(C)c(=O)c(C)c32)c1 [Trametinib] (2.5 nM) | 89.3 |
| Nc1ccccc1NC(=O)c1ccc(CNC(=O)OCc2cccnc2)cc1 [Entinostat] (100 nM) | 103 |

Test system: CAL-85-1
Test: as above
Conditions: incubation time: 72 h
Protocol: as §1

| Compound | normalised response [%] |
| --- | --- |
| O=C(O)CCCCC(CCSCc1ccccc1)SCc1ccccc1 (stereo unspecified) [CPI-613] (100 nM) | 96.4 |
| Nc1nc2[nH]cc(CCc3ccc(C(=O)N[C@@H](CCC(=O)O)C(=O)O)cc3)c2c(=O)[nH]1 [Pemetrexed] (100 nM) | 61 |
| Cc1cnc(NC(=O)Nc2cc(Br)c(C)cc2OC[C@@H]2CNCCO2)cn1 [Rabusertib] (10 nM) | 102 |
| CCCCC(=O)OCC(=O)[C@]1(O)Cc2c(O)c3c(c(O)c2[C@@H](O[C@H]2C[C@H](NC(=O)C(F)(F)F)[C@H](O)[C@H](C)O2)C1)C(=O)c1c(OC)cccc1C3=O [Valrubicin] (50 nM) | 98.8 |
| N#Cc1ccc(C(c2ccc(C#N)cc2)n2cncn2)cc1 [Letrozole] (100 nM) | 103 |
| CCCS(=O)(=O)Nc1ccc(F)c(C(=O)c2c[nH]c3ncc(-c4ccc(Cl)cc4)cc23)c1F [Vemurafenib] (100 nM) | 91.8 |
| CC[C@H](Nc1ncnc2[nH]cnc12)c1nc2cccc(F)c2c(=O)n1-c1ccccc1 [GS-1101] (100 nM) | 90.4 |
| CC(=O)Nc1cccc(-n2c(=O)n(C3CC3)c(=O)c3c(Nc4ccc(I)cc4F)n(C)c(=O)c(C)c32)c1 [Trametinib] (2.5 nM) | 97.4 |
| Nc1ccccc1NC(=O)c1ccc(CNC(=O)OCc2cccnc2)cc1 [Entinostat] (100 nM) | 112 |

Test system: DU-4475
Test: as above
Conditions: incubation time: 72 h
Protocol: as §1

| Compound | normalised response [%] |
| --- | --- |
| O=C(O)CCCCC(CCSCc1ccccc1)SCc1ccccc1 (stereo unspecified) [CPI-613] (100 nM) | 101 |
| Nc1nc2[nH]cc(CCc3ccc(C(=O)N[C@@H](CCC(=O)O)C(=O)O)cc3)c2c(=O)[nH]1 [Pemetrexed] (100 nM) | 95 |
| Cc1cnc(NC(=O)Nc2cc(Br)c(C)cc2OC[C@@H]2CNCCO2)cn1 [Rabusertib] (10 nM) | 104 |
| CCCCC(=O)OCC(=O)[C@]1(O)Cc2c(O)c3c(c(O)c2[C@@H](O[C@H]2C[C@H](NC(=O)C(F)(F)F)[C@H](O)[C@H](C)O2)C1)C(=O)c1c(OC)cccc1C3=O [Valrubicin] (50 nM) | 84 |
| N#Cc1ccc(C(c2ccc(C#N)cc2)n2cncn2)cc1 [Letrozole] (100 nM) | 102 |
| CCCS(=O)(=O)Nc1ccc(F)c(C(=O)c2c[nH]c3ncc(-c4ccc(Cl)cc4)cc23)c1F [Vemurafenib] (100 nM) | 86.5 |
| CC[C@H](Nc1ncnc2[nH]cnc12)c1nc2cccc(F)c2c(=O)n1-c1ccccc1 [GS-1101] (100 nM) | 102 |
| CC(=O)Nc1cccc(-n2c(=O)n(C3CC3)c(=O)c3c(Nc4ccc(I)cc4F)n(C)c(=O)c(C)c32)c1 [Trametinib] (2.5 nM) | 24.3 |
| Nc1ccccc1NC(=O)c1ccc(CNC(=O)OCc2cccnc2)cc1 [Entinostat] (100 nM) | 105 |

Test system: CAL-148
Test: as above
Conditions: incubation time: 72 h
Protocol: as §1

| Compound | normalised response [%] |
| --- | --- |
| O=C(O)CCCCC(CCSCc1ccccc1)SCc1ccccc1 (stereo unspecified) [CPI-613] (100 nM) | 108 |
| Nc1nc2[nH]cc(CCc3ccc(C(=O)N[C@@H](CCC(=O)O)C(=O)O)cc3)c2c(=O)[nH]1 [Pemetrexed] (100 nM) | 93.2 |
| Cc1cnc(NC(=O)Nc2cc(Br)c(C)cc2OC[C@@H]2CNCCO2)cn1 [Rabusertib] (10 nM) | 112 |
| CCCCC(=O)OCC(=O)[C@]1(O)Cc2c(O)c3c(c(O)c2[C@@H](O[C@H]2C[C@H](NC(=O)C(F)(F)F)[C@H](O)[C@H](C)O2)C1)C(=O)c1c(OC)cccc1C3=O [Valrubicin] (50 nM) | 97 |
| N#Cc1ccc(C(c2ccc(C#N)cc2)n2cncn2)cc1 [Letrozole] (100 nM) | 97.2 |
| CCCS(=O)(=O)Nc1ccc(F)c(C(=O)c2c[nH]c3ncc(-c4ccc(Cl)cc4)cc23)c1F [Vemurafenib] (100 nM) | 93.9 |
| CC[C@H](Nc1ncnc2[nH]cnc12)c1nc2cccc(F)c2c(=O)n1-c1ccccc1 [GS-1101] (100 nM) | 96.1 |
| CC(=O)Nc1cccc(-n2c(=O)n(C3CC3)c(=O)c3c(Nc4ccc(I)cc4F)n(C)c(=O)c(C)c32)c1 [Trametinib] (2.5 nM) | 99.1 |
| Nc1ccccc1NC(=O)c1ccc(CNC(=O)OCc2cccnc2)cc1 [Entinostat] (100 nM) | 104 |

Test system: MDA-MB-231
Test: as above
Conditions: incubation time: 72 h
Protocol: as §1

| Compound | normalised response [%] |
| --- | --- |
| O=C(O)CCCCC(CCSCc1ccccc1)SCc1ccccc1 (stereo unspecified) [CPI-613] (100 nM) | 107 |
| Nc1nc2[nH]cc(CCc3ccc(C(=O)N[C@@H](CCC(=O)O)C(=O)O)cc3)c2c(=O)[nH]1 [Pemetrexed] (100 nM) | 96.8 |
| Cc1cnc(NC(=O)Nc2cc(Br)c(C)cc2OC[C@@H]2CNCCO2)cn1 [Rabusertib] (10 nM) | 109 |
| CCCCC(=O)OCC(=O)[C@]1(O)Cc2c(O)c3c(c(O)c2[C@@H](O[C@H]2C[C@H](NC(=O)C(F)(F)F)[C@H](O)[C@H](C)O2)C1)C(=O)c1c(OC)cccc1C3=O [Valrubicin] (50 nM) | 97.4 |
| N#Cc1ccc(C(c2ccc(C#N)cc2)n2cncn2)cc1 [Letrozole] (100 nM) | 101 |
| CCCS(=O)(=O)Nc1ccc(F)c(C(=O)c2c[nH]c3ncc(-c4ccc(Cl)cc4)cc23)c1F [Vemurafenib] (100 nM) | 93.4 |
| CC[C@H](Nc1ncnc2[nH]cnc12)c1nc2cccc(F)c2c(=O)n1-c1ccccc1 [GS-1101] (100 nM) | 92 |
| CC(=O)Nc1cccc(-n2c(=O)n(C3CC3)c(=O)c3c(Nc4ccc(I)cc4F)n(C)c(=O)c(C)c32)c1 [Trametinib] (2.5 nM) | 86.5 |
| Nc1ccccc1NC(=O)c1ccc(CNC(=O)OCc2cccnc2)cc1 [Entinostat] (100 nM) | 98.6 |

Test system: HCC1599
Test: as above
Conditions: incubation time: 72 h
Protocol: as §1

| Compound | normalised response [%] |
| --- | --- |
| O=C(O)CCCCC(CCSCc1ccccc1)SCc1ccccc1 (stereo unspecified) [CPI-613] (100 nM) | 114 |
| Nc1nc2[nH]cc(CCc3ccc(C(=O)N[C@@H](CCC(=O)O)C(=O)O)cc3)c2c(=O)[nH]1 [Pemetrexed] (100 nM) | 72.1 |
| Cc1cnc(NC(=O)Nc2cc(Br)c(C)cc2OC[C@@H]2CNCCO2)cn1 [Rabusertib] (10 nM) | 106 |
| CCCCC(=O)OCC(=O)[C@]1(O)Cc2c(O)c3c(c(O)c2[C@@H](O[C@H]2C[C@H](NC(=O)C(F)(F)F)[C@H](O)[C@H](C)O2)C1)C(=O)c1c(OC)cccc1C3=O [Valrubicin] (50 nM) | 91.7 |
| N#Cc1ccc(C(c2ccc(C#N)cc2)n2cncn2)cc1 [Letrozole] (100 nM) | 95.9 |
| CCCS(=O)(=O)Nc1ccc(F)c(C(=O)c2c[nH]c3ncc(-c4ccc(Cl)cc4)cc23)c1F [Vemurafenib] (100 nM) | 95.5 |
| CC[C@H](Nc1ncnc2[nH]cnc12)c1nc2cccc(F)c2c(=O)n1-c1ccccc1 [GS-1101] (100 nM) | 93 |
| CC(=O)Nc1cccc(-n2c(=O)n(C3CC3)c(=O)c3c(Nc4ccc(I)cc4F)n(C)c(=O)c(C)c32)c1 [Trametinib] (2.5 nM) | 99.2 |
| Nc1ccccc1NC(=O)c1ccc(CNC(=O)OCc2cccnc2)cc1 [Entinostat] (100 nM) | 96.9 |

Test system: MCF-10A
Test: as above
Conditions: incubation time: 72 h
Protocol: as §1

| Compound | normalised response [%] |
| --- | --- |
| O=C(O)CCCCC(CCSCc1ccccc1)SCc1ccccc1 (stereo unspecified) [CPI-613] (100 nM) | 107 |
| Nc1nc2[nH]cc(CCc3ccc(C(=O)N[C@@H](CCC(=O)O)C(=O)O)cc3)c2c(=O)[nH]1 [Pemetrexed] (100 nM) | 92.8 |
| Cc1cnc(NC(=O)Nc2cc(Br)c(C)cc2OC[C@@H]2CNCCO2)cn1 [Rabusertib] (10 nM) | 107 |
| CCCCC(=O)OCC(=O)[C@]1(O)Cc2c(O)c3c(c(O)c2[C@@H](O[C@H]2C[C@H](NC(=O)C(F)(F)F)[C@H](O)[C@H](C)O2)C1)C(=O)c1c(OC)cccc1C3=O [Valrubicin] (50 nM) | 101 |
| N#Cc1ccc(C(c2ccc(C#N)cc2)n2cncn2)cc1 [Letrozole] (100 nM) | 103 |
| CCCS(=O)(=O)Nc1ccc(F)c(C(=O)c2c[nH]c3ncc(-c4ccc(Cl)cc4)cc23)c1F [Vemurafenib] (100 nM) | 96.8 |
| CC[C@H](Nc1ncnc2[nH]cnc12)c1nc2cccc(F)c2c(=O)n1-c1ccccc1 [GS-1101] (100 nM) | 84.1 |
| CC(=O)Nc1cccc(-n2c(=O)n(C3CC3)c(=O)c3c(Nc4ccc(I)cc4F)n(C)c(=O)c(C)c32)c1 [Trametinib] (2.5 nM) | 47.4 |
| Nc1ccccc1NC(=O)c1ccc(CNC(=O)OCc2cccnc2)cc1 [Entinostat] (100 nM) | 108 |

Test system: CAL-51
Test: as above
Conditions: incubation time: 72 h
Protocol: as §1

| Compound | normalised response [%] |
| --- | --- |
| O=C(O)CCCCC(CCSCc1ccccc1)SCc1ccccc1 (stereo unspecified) [CPI-613] (100 nM) | 61.4 |
| Nc1nc2[nH]cc(CCc3ccc(C(=O)N[C@@H](CCC(=O)O)C(=O)O)cc3)c2c(=O)[nH]1 [Pemetrexed] (100 nM) | 66.6 |
| Cc1cnc(NC(=O)Nc2cc(Br)c(C)cc2OC[C@@H]2CNCCO2)cn1 [Rabusertib] (10 nM) | 91.9 |
| CCCCC(=O)OCC(=O)[C@]1(O)Cc2c(O)c3c(c(O)c2[C@@H](O[C@H]2C[C@H](NC(=O)C(F)(F)F)[C@H](O)[C@H](C)O2)C1)C(=O)c1c(OC)cccc1C3=O [Valrubicin] (50 nM) | 72.7 |
| N#Cc1ccc(C(c2ccc(C#N)cc2)n2cncn2)cc1 [Letrozole] (100 nM) | 104 |
| CCCS(=O)(=O)Nc1ccc(F)c(C(=O)c2c[nH]c3ncc(-c4ccc(Cl)cc4)cc23)c1F [Vemurafenib] (100 nM) | 88.6 |
| CC[C@H](Nc1ncnc2[nH]cnc12)c1nc2cccc(F)c2c(=O)n1-c1ccccc1 [GS-1101] (100 nM) | 93.3 |
| CC(=O)Nc1cccc(-n2c(=O)n(C3CC3)c(=O)c3c(Nc4ccc(I)cc4F)n(C)c(=O)c(C)c32)c1 [Trametinib] (2.5 nM) | 112 |
| Nc1ccccc1NC(=O)c1ccc(CNC(=O)OCc2cccnc2)cc1 [Entinostat] (100 nM) | 76.1 |
